{
  "source": "patent US7264947B2",
  "about": "“Activity dependent neurotrophic factor III (ADNF III)” (United States of America, as represented by the Secretary …, priority 1997, dated 2007)",
  "key": {"[1]": {"tested_on": "cerebral cortical cultures", "format": "cell-based, newborn rats", "settings": "1 μM tetrodotoxin, five days; P<0.01"}, "[2]": {"tested_on": "ApoE-deficient mice", "assay": "developmental milestones (placing response, cliff avoidance) in ApoE-deficient mice", "format": "in vivo", "source_text": "Animals (15-37 per experimental group, 5-8 per litter) were submitted to placing response assays daily following injection of: 1. saline (open circles, C57B6 mice=control, n=37, closed circles, ApoE deficient=ApoE, n=22). Experiments were repeated three times. Score indicates: 0=no reaction, 1=time to acquire a response shorter than 15 seconds; 2=time to acquire a response shorter than 10 seconds; 3=time to acquire a response shorter than 5 seconds. Age (days) indicate: the age of the tested animals in days. Results are mean±SEM.\nApoE knockout mice and normal controls were a gift from the late Prof. Shlomo Eisenberg of Tel Aviv University, originally provided by Dr. J. L. Breslow (Plump et al., Cell 71:343-353 (1992)). The ApoE knockout mice were obtained from embryonic stem cells OLA 129 in C57B6×FVB mice (as described). Age-matched controls were inbred C57B6 mice. Groups of mouse pups were treated from birth until the age of 14 days. Daily subcutaneous injections included: […] saline (days 1 through 4), […] saline (days 5 through 10) and […] saline (days 11-14).\nDevelopmental milestones were measured using at least three dams with […] each for every experimental point. All observations were made between 12 noon and 4 pm. From day one through day six, mice were weighed and tested 60 min. after the daily injection. Placing is a behavioral parameter that is measured as the time elapsing between contact of the foot against the edge of an object and its placing on the top of the same object.\nFurther measurements in the Apo-E-deficient mouse included assessments of the time of onset of developmental milestones of behavior. […] A significant difference was observed among the treatment groups on the first day of testing (P<0.0001), with inbred C57B6 mice developing faster than the ApoE-deficient animals. […] NAP-treated animals were the fastest."}, "[3]": {"tested_on": "ApoE-deficient mice", "assay": "water maze, ApoE-deficient and control mice after treatment for the first two weeks of life", "format": "in vivo", "procedure": "Two daily water maze trials were performed on three week-old animals. Groups tested were: 1. control animals injected with vehicle for the first two weeks of life (35 animals of six different litters, with 5-7 animals from each litter, open circles); 2. ApoE-deficient animals injected with vehicle for the first two weeks of life (18 animals derived from three different litters, with 5-7 pups per litter, closed circles); 3. control animals chronically treated with NAP for the first two weeks of life (14 animals derived from three different litters, open triangles); and 4. ApoE-deficient mice chronically treated with NAP for the first two weeks of life (19 animals derived from three different litters, open rectangles). The figure depicts latency (of the second daily trial), measured in seconds, to reach the hidden platform 0.5 min. after being on it. Tests were performed over five consecutive days, and then with a two day delay tested for one additional day. ApoE=ApoE-deficient animals. There was no differences between animals treated with vehicle and untreated animals (data not shown). Statistical comparisons shown were made: 1. between ApoE-deficient and controls; 2. between ApoE-treated with NAP and ApoE-treated with vehicle; and 3. between control-treated with NAP and control-treated with vehicle (*P<0.001; **P<0.03; ***P<0.002). […]"}},
  "note": "“Also recorded” adds a separate entry of the source.",
  "data": [
    {"substance": "Asn-Ala-Pro-Val-Ser-Ile-Pro-Gln [NAP]", "values": [
      {"measurement": "concentrations of significant neuroprotection against tetrodotoxin", "setting": "[1]", "result": "10^−18-10^−14 M"},
      {"measurement": "placing response from the second postnatal day onwards", "setting": "[2]; P<0.0001", "result": "best performers"},
      {"measurement": "acquisition of the placing response and the cliff avoidance response", "setting": "[2]; daily injection", "result": "showed acceleration"},
      {"measurement": "marked improvement of placing response at the first day of treatment", "setting": "[2]; tested 60 min. after injection", "result": "marked improvement; also recorded: the fastest"},
      {"measurement": "water maze performance (latency to hidden platform, second daily trial)", "setting": "[3]; ApoE-deficient mice, treated first two weeks of life, tested from 21 days", "result": "performed as well as control animals; also recorded: ameliorated"},
      {"measurement": "water maze performance (latency to hidden platform, second daily trial)", "setting": "[3]; control animals chronically treated for the first two weeks of life", "result": "improved their performance"}
    ]}
  ]
}
